Source: US20250000834A1, “COMPOSITIONS AND METHODS FOR TARGETING GPCR FOR THE PREVENTION AND TREATMENT OF PAIN” (Duke University, priority 2021, published 2025)

Columns and labels:
[1] = system: Kir4.1 potassium channels in SGCs; assay: Patch-clamp recordings of K+ currents in SGCs of whole-mount DRG; format: cell-based, mouse
Procedure: Patch-clamp recordings in SGCs of whole-mount DRG: Under urethane anesthesia, mice were rapidly euthanized, followed by careful isolation of lumbar DRGs placed in the oxygenated artificial cerebral spinal fluid (aCSF). DRGs were briefly digested (20 min) using an enzymatic mixture consisting of collagenase A (1 mg/mL) and 0.32 mL Trypsin (0.25% original solution). Intact DRG were then incubated in aCSF oxygenated with 95% O2 and 5% CO2 at 34° C. Following incubation, DRG were transferred to a recording chamber. Isolated DRGs were transferred to a recording chamber continuously perfused (˜3 ml/min) with aCSF. SGCs in whole mouse DRGs could be visualized using a 40× water-immersion objective on an Olympus BX51WI microscope (Olympus Corp., Shinjuku, Japan). The round or fusiform-shaped cell bodies of SGCs were small (<10 μm) but visible near the edges of DRG neurons. Patch pipettes (Chase Scientific Glass Inc., Ramsey, MN) were pulled and filled with a pipette solution containing: 126 mM potassium gluconate, 10 mM NaCl, 1 mM MgCl2, 10 mM EGTA, 2 mM Na-ATP, and 0.1 mM Mg-GTP, adjusted to pH 7.3 with KOH. The resistance of pipettes was 10-12 MΩ. A Whole-cell patch-clamp configuration was made on SGCs at room temperature using a Multiclamp 700B amplifier (Axon Instruments, Union City, CA). Under voltage clamp, at a holding potential of −80 mV, inward or outward currents are triggered by voltage steps of −160 to +40 mV, with 20 mV increment in 200 ms (H. Zhang et al., Altered functional properties of satellite glial cells in compressed spinal ganglia. Glia 57, 1588-1599 (2009)). To isolate inwardly rectifying potassium current (Kir), potassium currents from the same cells were recorded in the absence and presence of 100 μM extracellular barium, which blocks the Kir4.1 channel (C. A. Doupnik, et al, The inward rectifier potassium channel family. Curr Opin Neurobiol 5, 268-277 (1995); X. Tong et al., Astrocyte Kir4.1 ion channel deficits contribute to neuronal dysfunction in Huntington's disease model mice. Nat Neurosci 17, 694-703 (2014)). The Kir4.1 currents were obtained by digitally subtracting those currents in the absence and presence of barium.
Kir4.1 potassium channels are the predominant potassium channels in SGCs and are chiefly responsible for the potassium currents in SGCs. Dysregulation of SGC Kir4.1 contributes to the pathogenesis of pain (M. Hanani, D. C. Spray, Emerging importance of satellite glia in nervous system function and dysfunction. Nat Rev Neurosci 21, 485-498 (2020)). SGC K^+ currents were recorded by conducting patch-clamp recordings in SGCs in whole-mount DRG preparation (data not shown; see U.S. Prov. No. 63/270,198, FIG. 7A), collected from WT mice, Gpr37l1^+/+ mice, and Gpr37l1^+/− mutant mice (FIG. 11A parts A-C).

hGPR37L1 = target: T1, hGPR37L1 (Homo sapiens, UniProt O60883); assay: Lipid-coated bead pull-down assay with hGPR37L1-expressing cells; format: binding; design: expressed in transfected cells; host or cells: HEK293 Flp-In cells; conditions: Western blot
T1 sequence (O60883 26-481): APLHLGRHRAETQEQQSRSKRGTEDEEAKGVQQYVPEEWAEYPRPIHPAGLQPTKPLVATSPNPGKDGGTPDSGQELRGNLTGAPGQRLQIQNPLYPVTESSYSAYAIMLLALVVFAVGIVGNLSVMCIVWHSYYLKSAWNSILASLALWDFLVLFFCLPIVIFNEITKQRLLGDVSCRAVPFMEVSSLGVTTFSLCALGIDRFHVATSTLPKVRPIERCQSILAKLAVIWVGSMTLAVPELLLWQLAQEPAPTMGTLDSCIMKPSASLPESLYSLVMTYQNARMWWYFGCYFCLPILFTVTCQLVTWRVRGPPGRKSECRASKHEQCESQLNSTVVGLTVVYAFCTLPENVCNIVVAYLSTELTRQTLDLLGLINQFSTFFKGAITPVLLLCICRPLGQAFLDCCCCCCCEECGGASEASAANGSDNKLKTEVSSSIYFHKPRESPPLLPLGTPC
Procedure: Lipid pull-down assay: Isolated membrane proteins were pre-adsorbed to uncoated control agarose beads (Vector Laboratories, Burlingame, CA); the unbound fraction was collected and incubated 24 hrs at 4° C. with lipid-coated agarose beads (S. Bang et al., GPR37 regulates macrophage phagocytosis and resolution of inflammatory pain. J Clin Invest 128, 3568-3582 (2018)). After extensive washing, bound proteins were eluted from the lipid-coated beads, suspended in Laemmli buffer containing 2% SDS (w/v) and 0.3-M β-mercaptoethanol (Sigma-Aldrich, St. Louis, MO), and heated 5 min at 95° C. to dissolve proteins before separation on 4-20% polyacrylamide/SDS gels as outlined above. The lysate proteins were detected by western blot.
Western blot: GPR37L1 proteins were isolated from transfected cells, lipid pull-down beads, and mouse DRG. The cells were placed on ice, washed with ice-cold phosphate-buffered saline (PBS), and harvested with ice-cold RIPA buffer (Sigma-Aldrich, St. Louis, MO) with Protease Inhibitor Cocktail Tablet (pH 7.4) (Roche Diagnostics, Indianapolis, IN). The cell lysates were centrifugated for removing insoluble debris and were calculated by BCA assay for detection of protein level, and the supernatant was mixed with 4× Laemmli buffer (Bio-Rad, Hercules, CA) and boiling. Protein samples were […] on 4-15% gradient SDS-PAGE gel (Bio-Rad, Hercules, CA) and blotted on PVDF membrane (Bio-Rad, Hercules, CA). Ponceau S staining was used for the detection of total proteins. The primary antibody was incubated with PBS+1% BSA at 4° C. overnight. We used the following primary antibodies: anti-GPR37L1 antibody (Bioss (Woburn, MA), Rabbit, 1:1000, #bs-15390R); anti-GAPDH antibody (Proteintech (Rosemont, IL), mouse, 1:2000, #60004); and anti-flag antibody (Cell Signaling Technologies (Danvers, MA), Rabbit, 1:1000, #14793). Blots were further incubated with an […] secondary anti-rabbit antibody (Jackson ImmunoResearch Laboratories (West Grove, PA), donkey, 1:5000), developed in ECL solution (Pierce Biotechnology, Appleton, WI)), and visualized in ChemiDoc XRS (Bio-Rad, Hercules, CA). Protein signal intensity was quantified by Image J software (NIH).
Next, a lipid-coated bead pull-down assay with hGPR37L1-expressing cells was used to confirm whether MaR1 would interact with GPR37L1 protein selectively. […] The right molecule size of GPR37L1 (˜50 kDa) was also validated by the anti-FLAG antibody (data not shown; see U.S. Prov. No. 63/270,198, FIG. 3E).

GPR37L1 binding in lipid-coated bead pull-down extracts (hGPR37L1): Strong GPR37L1 binding
SMILES: CC/C=C\C/C=C\C[C@H](O)\C=C/C=C/C=C/[C@H](O)C/C=C\CCC(=O)O [MaR1, Maresin 1]
effect on PTX-induced downregulation of K+ currents in SGCs ([1]; 100 ng/ml co-applied with PTX, Gpr37l1+/+ DRG): significantly rescued
effect on K+ currents in SGCs ([1]; 100 ng/ml with PTX, Gpr37l1 mutant (Gpr37l1+/−) DRG): completely abolished
